Test results taken from patent US12540141B2, “Spiropyrrolidine derived antiviral agents” (priority 2020, dated 2026).

Molecular target: SARS-CoV-2 3CL-protease (Severe acute respiratory syndrome coronavirus 2, UniProt P0DTD1)
Experiment: SARS-CoV-2 3C-Like (3CL) Protease Fluorescence Assay (FRET)
Type: biochemical
Conditions: SARS-CoV-2 3CL-protease 10 nM, 30 min preincubation at RT, substrate 40 μM

Compound | IC50
CC(C)C[C@@H](C(=O)N1C[C@]2(C[C@H]1C#N)C(=O)Nc1ccccc12)N(C)C(=O)c1ccncc1 [Example 194] | 100 to 1000 nM
CC(C)C[C@@H](C(=O)N1C[C@]2(C[C@H]1C#N)C(=O)Nc1ccccc12)N(C)C(=O)c1cncc(C(F)(F)F)c1 [Example 195] | < 100 nM
CC(C)C[C@@H](C(=O)N1C[C@]2(C[C@H]1C#N)C(=O)Nc1ccccc12)N(C)C(=O)c1cncc(F)c1 [Example 196] | < 100 nM
CC(C)C[C@@H](C(=O)N1C[C@]2(C[C@H]1C#N)C(=O)Nc1ccccc12)N(C)C(=O)c1cc(F)ccn1 [Example 197] | 100 to 1000 nM
CC(C)C[C@@H](C(=O)N1C[C@]2(C[C@H]1C#N)C(=O)Nc1ccccc12)N(C)C(=O)c1ccc(F)cn1 [Example 198] | 100 to 1000 nM
CC(C)C[C@@H](C(=O)N1C[C@]2(C[C@H]1C#N)C(=O)Nc1ccccc12)N(C)C(=O)c1cccc(N)n1 [Example 199] | 100 to 1000 nM
CC(C)C[C@@H](C(=O)N1C[C@]2(C[C@H]1C#N)C(=O)Nc1ccccc12)N(C)C(=O)c1cnccn1 [Example 200] | < 100 nM
CC(C)C[C@@H](C(=O)N1C[C@]2(C[C@H]1C#N)C(=O)Nc1ccccc12)N(C)C(=O)c1cn(C)cn1 [Example 201] | 100 to 1000 nM
CC(C)C[C@@H](C(=O)N1C[C@]2(C[C@H]1C#N)C(=O)Nc1ccccc12)N(C)C(=O)c1ccn[nH]1 [Example 202] | 100 to 1000 nM
CC(C)C[C@@H](C(=O)N1C[C@]2(C[C@H]1C#N)C(=O)Nc1ccccc12)N(C)C(=O)c1ccnn1C [Example 203] | < 100 nM
CC(C)C[C@@H](C(=O)N1C[C@]2(C[C@H]1C#N)C(=O)Nc1ccccc12)N(C)C(=O)c1ccn(C)n1 [Example 204] | 100 to 1000 nM
CC(C)C[C@@H](C(=O)N1C[C@]2(C[C@H]1C#N)C(=O)Nc1ccccc12)N(C)C(=O)c1nc2ccccc2[nH]1 [Example 205] | < 100 nM
CC(C)C[C@@H](C(=O)N1C[C@]2(C[C@H]1C#N)C(=O)Nc1ccccc12)N(C)C(=O)c1nc2ccccc2s1 [Example 206] | 100 to 1000 nM
CC(C)C[C@@H](C(=O)N1C[C@]2(C[C@H]1C#N)C(=O)Nc1ccccc12)N(C)C(=O)c1cc2ccccc2s1 [Example 207] | < 100 nM
CC(C)C[C@@H](C(=O)N1C[C@]2(C[C@H]1C#N)C(=O)Nc1ccccc12)N(C)C(=O)c1cc2ccccc2o1 [Example 208] | < 100 nM
CC(C)C[C@@H](C(=O)N1C[C@]2(C[C@H]1C#N)C(=O)Nc1ccccc12)N(C)C(=O)c1cc2sccc2[nH]1 [Example 209] | < 100 nM
CC(C)C[C@@H](C(=O)N1C[C@]2(C[C@H]1C#N)C(=O)Nc1ccccc12)N(C)C(=O)c1ccc2ncccc2c1 [Example 210] | < 100 nM
CC(C)C[C@@H](C(=O)N1C[C@]2(C[C@H]1C#N)C(=O)Nc1ccccc12)N(C)C(=O)c1ccc2ccccc2n1 [Example 211] | 100 to 1000 nM
CC(C)C[C@@H](C(=O)N1C[C@]2(C[C@H]1C#N)C(=O)Nc1ccccc12)N(C)C(=O)c1cc2ccccc2cn1 [Example 212] | < 100 nM
CC(C)C[C@@H](C(=O)N1C[C@]2(C[C@H]1C#N)C(=O)Nc1ccccc12)N(C)C(=O)c1cnc2ccccc2c1 [Example 213] | < 100 nM
CC(C)C[C@@H](C(=O)N1C[C@]2(C[C@H]1C#N)C(=O)Nc1ccccc12)N(C)C(=O)c1cccc2ncccc12 [Example 214] | < 100 nM

Compound | IC50
CC(C)C[C@@H](C(=O)N1C[C@]2(C[C@H]1C#N)C(=O)Nc1ccccc12)N(C)C(=O)c1cccc2cnccc12 [Example 215] | < 100 nM
CC(C)C[C@@H](C(=O)N1C[C@]2(C[C@H]1C#N)C(=O)Nc1ccccc12)N(C)C(=O)c1ccc2cnccc2c1 [Example 216] | < 100 nM
CC(C)C[C@@H](C(=O)N1C[C@]2(C[C@H]1C#N)C(=O)Nc1ccccc12)N(C)C(=O)c1ccc2ccncc2c1 [Example 217] | 100 to 1000 nM
CC(C)C[C@@H](C(=O)N1C[C@]2(C[C@H]1C#N)C(=O)Nc1ccccc12)N(C)C(=O)c1ccc2cccnc2c1 [Example 218] | 100 to 1000 nM
CC(C)C[C@@H](C(=O)N1C[C@]2(C[C@H]1C#N)C(=O)Nc1ccccc12)N(C)C(=O)c1ccc2ccccc2c1 [Example 219] | 100 to 1000 nM
CC(C)C[C@@H](C(=O)N1C[C@]2(C[C@H]1C#N)C(=O)Nc1ccccc12)N(C)C(=O)c1ccc(F)c2ccccc12 [Example 221] | < 100 nM
CC(C)C[C@@H](C(=O)N1C[C@]2(C[C@H]1C#N)C(=O)Nc1ccccc12)N(C)C(=O)c1ccc2cc(F)ccc2c1 [Example 222] | 100 to 1000 nM
CC(C)C[C@@H](C(=O)N1C[C@]2(C[C@H]1C#N)C(=O)Nc1ccccc12)N(C)C(=O)c1ccc2cn[nH]c2c1 [Example 223] | 100 to 1000 nM
CC(C)C[C@@H](C(=O)N1C[C@]2(C[C@H]1C#N)C(=O)Nc1ccccc12)N(C)C(=O)c1ccc2cnn(C)c2c1 [Example 224] | < 100 nM
CC(C)C[C@@H](C(=O)N1C[C@]2(C[C@H]1C#N)C(=O)Nc1ccccc12)N(C)C(=O)c1ccc2nc(N)sc2c1 [Example 225] | > 1000 nM
CC(C)C[C@@H](C(=O)N1C[C@]2(C[C@H]1C#N)C(=O)Nc1ccccc12)N(C)C(=O)Cc1ccccc1 [Example 226] | < 100 nM
CC(C)C[C@@H](C(=O)N1C[C@]2(C[C@H]1C#N)C(=O)Nc1ccccc12)N(C)C(=O)CCc1ccccc1 [Example 227] | < 100 nM
CC(C)C[C@@H](C(=O)N1C[C@]2(C[C@H]1C#N)C(=O)Nc1ccccc12)N(C)C(=O)/C=C/c1ccccc1 [Example 228] | < 100 nM
CC(C)C[C@@H](C(=O)N1C[C@]2(C[C@H]1C#N)C(=O)Nc1ccccc12)N(C)C(=O)COc1ccccc1 [Example 229] | < 100 nM
CC(C)C[C@@H](C(=O)N1C[C@]2(C[C@H]1C#N)C(=O)Nc1ccccc12)N(C)C(=O)c1ccc2c(Br)cccc2n1 [Example 231] | 100 to 1000 nM
Cc1ccc2cc(C(=O)N(C)[C@@H](CC(C)C)C(=O)N3C[C@]4(C[C@H]3C#N)C(=O)Nc3ccccc34)ccc2n1 [Example 234] | < 100 nM
CC(C)C[C@@H](C(=O)N1C[C@]2(C[C@H]1C#N)C(=O)Nc1ccccc12)N(C)C(=O)c1ccc2ncc(F)cc2c1 [Example 235] | < 100 nM
CC(C)C[C@@H](C(=O)N1C[C@]2(C[C@H]1C#N)C(=O)Nc1ccccc12)N(C)C(=O)c1cc2ccc(Br)cc2cn1 [Example 236] | 100 to 1000 nM
CC(C)C[C@@H](C(=O)N1C[C@]2(C[C@H]1C#N)C(=O)Nc1ccccc12)N(C)C(=O)c1ccc2ncc(C(F)(F)F)cc2c1 [Example 237] | < 100 nM
Cc1cc2cc(C(=O)N(C)[C@@H](CC(C)C)C(=O)N3C[C@]4(C[C@H]3C#N)C(=O)Nc3ccccc34)cc(OC(F)(F)F)c2nc1C [Example 238] | < 100 nM
CC(C)C[C@@H](C(=O)N1C[C@]2(C[C@H]1C#N)C(=O)Nc1ccccc12)N(C)C(=O)c1cc(Cl)c2ncc(C3CC3)cc2c1 [Example 239] | 100 to 1000 nM

Compound | IC50
CC(C)C[C@@H](C(=O)N1C[C@]2(C[C@H]1C#N)C(=O)Nc1ccccc12)N(C)C(=O)c1cc(Cl)c2ncc(C(F)(F)F)cc2c1 [Example 240] | < 100 nM
CC(C)C[C@@H](C(=O)N1C[C@]2(C[C@H]1C#N)C(=O)Nc1ccccc12)N(C)C(=O)c1cccc2ccccc12 [Example 241] | < 100 nM
CC(C)C[C@@H](C(=O)N1C[C@]2(C[C@H]1C#N)C(=O)Nc1ccccc12)N(C)C(=O)c1ccc2ccsc2c1 [Example 246] | 100 to 1000 nM
CC(C)C[C@@H](C(=O)N1C[C@]2(C[C@H]1C#N)C(=O)Nc1ccccc12)N(C)C(=O)c1cc2ccccn2n1 [Example 247] | 100 to 1000 nM
CC(C)C[C@@H](C(=O)N1C[C@]2(C[C@H]1C#N)C(=O)Nc1ccccc12)N(C)C(=O)C#Cc1ccccc1 [Example 248] | 100 to 1000 nM
COc1ccc2[nH]c(C(=O)N(C)[C@@H](CC(C)C)C(=O)N3C[C@]4(C[C@H]3C#N)C(=O)Nc3ccccc34)nc2c1 [Example 249] | < 100 nM
CC(C)C[C@@H](C(=O)N1C[C@]2(C[C@H]1C#N)C(=O)Nc1ccccc12)N(C)C(=O)c1nc2cc(F)ccc2[nH]1 [Example 250] | < 100 nM
CC(C)C[C@@H](C(=O)N1C[C@]2(C[C@H]1C#N)C(=O)Nc1ccccc12)N(C)C(=O)c1nc2cc(Cl)c(Cl)cc2[nH]1 [Example 251] | 100 to 1000 nM
Cc1cccc2[nH]c(C(=O)N(C)[C@@H](CC(C)C)C(=O)N3C[C@]4(C[C@H]3C#N)C(=O)Nc3ccccc34)nc12 [Example 252] | < 100 nM
CC(C)C[C@@H](C(=O)N1C[C@]2(C[C@H]1C#N)C(=O)Nc1ccccc12)N(C)C(=O)c1cc2cccnc2cc1OC(F)F [Example 253] | < 100 nM
CC(C)C[C@@H](C(=O)N1C[C@]2(C[C@H]1C#N)C(=O)Nc1ccccc12)N(C)C(=O)c1cc2ccc(=O)[nH]c2cc1OC1CC1 [Example 254] | < 100 nM
CC(C)C[C@@H](C(=O)N1C[C@]2(C[C@H]1C#N)C(=O)Nc1ccccc12)N(C)C(=O)c1cc(Cl)c2[nH]c(C3CC3)nc2c1 [Example 256] | < 100 nM
CC(C)C[C@@H](C(=O)N1C[C@]2(C[C@H]1C#N)C(=O)Nc1ccccc12)N(C)C(=O)c1ccc2nc(-c3ccccc3)ccc2c1 [Example 257] | 100 to 1000 nM
COc1cc(C(=O)N(C)[C@@H](CC(C)C)C(=O)N2C[C@]3(C[C@H]2C#N)C(=O)Nc2ccccc23)nc2ccccc12 [Example 258] | 100 to 1000 nM
Cc1cc(C)c2ccc(C(=O)N(C)[C@@H](CC(C)C)C(=O)N3C[C@]4(C[C@H]3C#N)C(=O)Nc3ccccc34)nc2c1O [Example 259] | 100 to 1000 nM
CC(C)C[C@@H](C(=O)N1C[C@]2(C[C@H]1C#N)C(=O)Nc1ccccc12)N(C)C(=O)c1cnc2ccccc2c1O [Example 260] | 100 to 1000 nM
CC(C)C[C@@H](C(=O)N1C[C@]2(C[C@H]1C#N)C(=O)Nc1ccccc12)N(C)C(=O)c1ccccc1-c1ccccc1 [Example 261] | 100 to 1000 nM
CC(C)C[C@@H](C(=O)N1C[C@]2(C[C@H]1C#N)C(=O)Nc1ccccc12)N(C)C(=O)c1cc(-c2ccccc2)ccc1Cl [Example 262] | 100 to 1000 nM
CC(C)C[C@@H](C(=O)N1C[C@]2(C[C@H]1C#N)C(=O)Nc1ccccc12)N(C)C(=O)c1cccc(-c2ccc(C(F)(F)F)cc2)c1 [Example 263] | 100 to 1000 nM
CC(C)C[C@@H](C(=O)N1C[C@]2(C[C@H]1C#N)C(=O)Nc1ccccc12)N(C)C(=O)c1cccc(-c2ccccc2F)c1 [Example 264] | 100 to 1000 nM
